For 3 molecules, TGI results are on record in PubChem BioAssay (NCI).

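A five-concentration, 48-hour dose response in 96-well plates underlies each endpoint, interpolated linearly between surrounding concentrations. TGI denotes the concentration required for complete inhibition of growth.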 Some results are limits rather than exact numbers.

What all share (assay): growth of human tumour cells (NCI), 48 h
Test [1] has as its system OVCAR-3 ovarian.
Test [2] relates to SR leukemia.
Test [3] has as its system HCT-15 colon.
The test system of test [4] is UO-31 renal.
Test [5] deals with IGROV1 ovarian.
Test [6] concerns MDA-MB-231 breast.
Test [7] relates to MALME-3M melanoma.
Test [8] concerns RXF 393 renal.
The subject of test [9] is OVCAR-8 ovarian.
The subject of test [10] is ACHN renal.
Test [11] deals with EKVX NSCLC.
Test [12] has as its system NCI-H226 lung.
The test system of test [13] is NCI/ADR-RES ovarian.
Test [14] relates to SNB-19 CNS.
Test [15] deals with RPMI-8226 leukemia.

As to `Cn1c(=O)nc2n(CCO)c(-c3ccccc3)c(-c3ccccc3)nc-2c1=O`, the TGI in test [1], in test [2], in test [3], in [4], in test [5] and in [6] was more than 100 µM throughout. Also, the TGI in test [7], in test [8], in test [9], in test [10], in [11] and in [12] was more than 100 µM in each case. The TGI in [13], in [14] and in test [15] was more than 100 µM each time.

With `CCN(CC)c1ccc(/C=C/C2=NN(c3cccc(S(=O)(=O)O)c3)C3(C2)C(Cl)C(=O)N3c2nc3ccccc3s2)cc1` (stereo not given), the TGI in test [1] stood at 17.4 µM; in [2] it was 7.41 µM; in test [3] it was 24.1 µM; in test [4] it was 3.6 µM; in test [5], 17 µM; in [6], 27 µM. The TGI stood at 24.9 µM in test [7]; 21.1 µM in [8]; 31.4 µM in test [9]; 23.8 µM in test [10]; 39.2 µM in [11]; 34.2 µM in test [12]. Also, the TGI was more than 79.3 µM in test [13], 29.7 µM in test [14] and 6.89 µM in test [15].

On to `CC[C@@]1(O)C(=O)OCc2c1c(Cl)c1n(c2=O)Cc2cc3ccccc3nc2-1`, for which the TGI is 22.1 µM in test [1]; more than 23.7 µM in [2]; more than 81.6 µM in test [3]; 9.22 µM in test [4]; 42.9 µM in test [5]; more than 100 µM in test [6]. The TGI in [7] is 42.1 µM; in [8], 15.1 µM; in [9] it was 22.9 µM; in test [10], 6.05 µM; in [11], more than 70.5 µM; in [12], 31.2 µM. Moreover, the TGI is 15.1 µM in [13], 56.7 µM in [14] and more than 100 µM in [15].
